Results from patent US8778984B2, “Aldosterone synthase inhibitor” (Eli Lilly and Company, priority 2011, dated 2014).
pIC50: −log10 of the molar value.

Key:
Type in all cases: cell-based
human cyp11B2 = biological target: T1, human cyp11B2 (Homo sapiens, UniProt P19099); experiment: Aldosterone Synthase Inhibitor Assay (V79-hcyp11B2 cells, aldosterone by LC-MS); settings: aldosterone production from 1 μM DOC, 24 hours incubation, geometric means, separate experiments
T1 construct: expressed in transfected cells
T1 sequence (P19099 25-503): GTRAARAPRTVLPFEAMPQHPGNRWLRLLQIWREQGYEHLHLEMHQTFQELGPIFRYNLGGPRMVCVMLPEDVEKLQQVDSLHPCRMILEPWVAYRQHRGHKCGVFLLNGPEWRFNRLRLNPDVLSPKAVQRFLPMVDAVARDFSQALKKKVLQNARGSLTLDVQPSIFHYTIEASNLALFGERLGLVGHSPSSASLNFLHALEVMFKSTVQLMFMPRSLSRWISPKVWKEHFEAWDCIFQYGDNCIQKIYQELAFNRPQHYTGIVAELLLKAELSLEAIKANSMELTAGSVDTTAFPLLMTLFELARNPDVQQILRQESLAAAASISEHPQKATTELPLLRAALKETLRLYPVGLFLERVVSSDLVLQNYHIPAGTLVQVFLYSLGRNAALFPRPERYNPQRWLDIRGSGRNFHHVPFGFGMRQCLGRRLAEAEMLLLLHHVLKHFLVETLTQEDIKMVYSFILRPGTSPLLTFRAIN
Protocol: Chinese hamster fibroblast cells (V79, ATCC™) constitutively expressing human cyp11B2 are established by transfection with a mammalian expression vector harboring the human cyp11B2 cDNA under CMV promoter and a neomycin antibiotic resistant gene for selection in mammalian cells. V79 cells are transfected in T225 cm^2 flasks with the lipofectamine transfection reagent and the human cyp11B2 cDNA. Positive clones are selected with the selection antibiotic geneticin at 1 mg/mL.
Aldosterone production from transfected cells is initiated by the addition of 1 μM DOC in the medium. After 24 hours incubation, 100 μL cell culture medium is collected and aldosterone concentration in the medium is determined using a liquid chromatography-mass spectrometry (LC-MS) method. […] The wells are then extracted 3× with EtOAc (150 μl) using the FX, combining the organic layers in a new 96-well plate. The solvent is dried in a GeneVac HT-4 or under nitrogen. […] A 25 μl aliquot of the sample is injected and a gradient from 20-100% ACN+0.1% formic acid (FA) in 1 min is initiated. Aldosterone elutes at 0.7 min. Starting conditions are held for 1 minute to re-equilibrate the column. An ABI 4000 tandem mass spectrometer is used for MS/MS analysis in the negative ion mode. […] The area under the peak from each transition is added together to comprise the signal from aldosterone and IS, respectively. […] The detection limit for aldosterone is […].
(§1) DOC and various concentrations of test compounds in 1:3 dilution increments are added to the cell culture medium. After 24 hours incubation, 100 μl of cell medium are collected and aldosterone concentration determined as described above. Data are fit to a 4 parameter-fit logistics curve to determine IC50 values.

human cyp11B1 = biological target: T2, human cyp11B1 (Homo sapiens, UniProt P15538); experiment: Cortisol Inhibition Assay (V79-human cyp11B1 cells, cortisol by LC-MS); settings: for Selectivity Ratio: IC50(hcyp11B1)/IC50(hcyp11B2); for pIC50: V79-human cyp11B1 cells, cortisol production from 1 μM 11-deoxycortisol, 24 hours incubation, read-out: IC50 (hcyp11B1)
T2 construct: expressed in transfected cells
T2 sequence (P15538 25-503): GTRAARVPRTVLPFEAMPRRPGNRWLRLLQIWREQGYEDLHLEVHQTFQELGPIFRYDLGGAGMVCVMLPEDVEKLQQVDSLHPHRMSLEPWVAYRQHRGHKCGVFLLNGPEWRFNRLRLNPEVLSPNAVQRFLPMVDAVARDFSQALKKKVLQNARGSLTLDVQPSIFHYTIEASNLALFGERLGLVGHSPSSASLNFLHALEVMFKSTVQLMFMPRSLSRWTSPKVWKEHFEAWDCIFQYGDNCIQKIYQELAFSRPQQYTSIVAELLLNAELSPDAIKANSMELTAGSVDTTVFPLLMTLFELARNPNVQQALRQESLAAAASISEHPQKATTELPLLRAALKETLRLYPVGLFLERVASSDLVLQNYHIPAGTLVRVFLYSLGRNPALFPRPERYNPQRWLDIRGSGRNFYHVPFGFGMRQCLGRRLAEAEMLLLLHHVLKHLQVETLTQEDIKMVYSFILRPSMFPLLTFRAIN
Protocol: Chinese hamster fibroblast cells (V79) constitutively expressing human cyp11B1 are established by transfection with a mammalian expression vector harboring the human cyp11B1 cDNA under CMV promoter and a neomycin antibiotic resistant gene for selection in mammalian cells. V79 cells are transfected in T225 cm^2 flasks with the lipofectamine transfection reagent and the human cyp11B1 cDNA. Positive clones are selected with the selection antibiotic geneticin at 1 mg/mL. Cortisol production from transfected cells is initiated by the addition of 1 μM 11-deoxycortisol in the medium. After 24 hours incubation, culture medium is collected and cortisol concentration in the medium is determined using a liquid chromatography-mass spectrometry (LC-MS) method. The cell media (100 μL) is transferred to a new deep-well 96-well plate. A Beckman Coulter FX liquid handling system (modified for use with organic solvents) with a 96-tip head is used to add an IS solution to each well (10 μl of 200 ng/mL d-4-cortisol). The wells are then extracted 3× with EtOAc (300 μl) using the FX, combining the organic layers in a new deep-well 96-well plate. The solvent is then dried in a GeneVac HT-4 or under nitrogen. The FX is then used to reconstitute the samples in 50% MeOH/water (100 μl) and the plates are heat-sealed.
A 40 μl aliquot of the sample is injected and a gradient from 20-100% MeOH in 0.95 min is initiated. […] Starting conditions are then held for 1 minute to re-equilibrate the column. An ABI QTRAP 4000 tandem mass spectrometer is used for MS/MS analysis in the positive ion mode. […] These are respectively integrated to give the peak areas. The cortisol/IS area-ratio is used to determine cortisol concentration by comparison to a standard curve. The detection limit for cortisol is 1 ng/mL.
as §1, with “11-Deoxycortisol” for “DOC”, “cortisol” for “aldosterone”

[1] = biological target: cynomolgus monkey cyp11B1 (Macaca fascicularis, UniProt A0A2K5ULY1); experiment: Cynomolgus Monkey Cortisol Inhibition Assay; settings: V79 cells expressing cynomolgus monkey cyp11B1; n=1; read-out: relative IC50, cynomolgus monkey cortisol inhibition assay
Protocol: Chinese hamster fibroblast cells (V79) constitutively expressing cynomolgus monkey cyp11B1 is established by transfection with a mammalian expression vector harboring the cynomolgus monkey cyp11B1 cDNA. This cell line was used to measure the activity of compounds in inhibiting […] from cynomolgus monkey enzyme. Cell culture condition and cortisol detection method is performed following the same protocol described in the “cortisol inhibition assay”.

Chain of cynomolgus monkey cyp11B1 (A0A2K5ULY1 entry or part of it): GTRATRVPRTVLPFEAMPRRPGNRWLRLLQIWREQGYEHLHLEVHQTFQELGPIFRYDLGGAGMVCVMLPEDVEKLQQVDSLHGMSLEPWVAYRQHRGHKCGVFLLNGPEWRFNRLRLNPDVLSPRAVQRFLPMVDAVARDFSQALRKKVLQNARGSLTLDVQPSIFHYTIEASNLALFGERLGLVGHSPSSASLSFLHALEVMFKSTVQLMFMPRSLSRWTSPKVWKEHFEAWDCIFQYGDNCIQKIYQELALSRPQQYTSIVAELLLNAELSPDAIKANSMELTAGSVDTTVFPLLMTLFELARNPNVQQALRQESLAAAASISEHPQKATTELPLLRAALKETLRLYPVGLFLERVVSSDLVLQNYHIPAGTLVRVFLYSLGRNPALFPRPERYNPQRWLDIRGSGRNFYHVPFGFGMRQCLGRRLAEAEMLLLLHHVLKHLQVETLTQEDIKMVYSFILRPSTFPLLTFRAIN

SMILES	pIC50 (human cyp11B2)	Selectivity Ratio (human cyp11B1)	pIC50 (human cyp11B1)	pIC50 [1]
CC1(C)C[C@H](c2ccc(C#N)cc2)c2cn[nH]c21 (single isomer, unassigned) [Example 1]	8.30	33.0	6.78	6.68
CC1(C)CC(c2ccc(C#N)cc2F)c2cn[nH]c21 (single isomer, unassigned; isomer 1) [Example 49, 4-(6,6-Dimethyl-4,5-dihydro-1H-cyclopenta[c]pyrazol-4-yl)-3-fluoro-benzonitrile, isomer 1]	8.15	44.4	6.51	6.24
